Assay results taken from patent US11918693B2, “Ibuprofen and acetaminophen tablet” (GlaxoSmithKline Consumer Healthcare Holdings (US) LLC, priority 2019, dated 2024).

Tested on: pyrexia induced by intravenous reference standard endotoxin (RSE) in healthy males
Assay type: in vivo, human
Details: for WSTD0-2 h, Treatment difference vs. Placebo / WSTD0-4 h, Treatment difference vs. Placebo / WSTD0-6 h, Treatment difference vs. Placebo / WSTD0-8 h, Treatment difference vs. Placebo / WSTD6-8 h, Treatment difference vs. Placebo / WSTD50-110 min, Treatment difference vs. Placebo / WSTD80-110 min, Treatment difference vs. Placebo / Period post dose in which subjects' temperatures were significantly reduced relative to placebo / Headache due to RSE, subjects / Nausea due to RSE, subjects / Pyrexia, AE considered related to RSE, subjects: APAP 500 mg; for WSTD50-110 min, LSM / WSTD50-110 min, Mean / WSTD80-110 min, LSM / WSTD80-110 min, Mean: post hoc analysis; for WSTD50-110 min, LSM / WSTD50-110 min, Mean / WSTD80-110 min, LSM / WSTD80-110 min, Mean / WSTD0-2 h, Mean (SD) / WSTD0-4 h, Mean (SD) / WSTD0-6 h, Mean (SD) / WSTD6-8 h, Mean (SD) / WSTD0-8 h, Mean (SD): IBU dose 250 mg, APAP dose 500 mg; for Period post dose in which subjects' temperatures were significantly reduced relative to placebo / WSTD0-2 h, Mean (SD) / WSTD0-4 h, Mean (SD) / WSTD0-6 h, Mean (SD) / WSTD6-8 h, Mean (SD) / WSTD0-8 h, Mean (SD): single oral dose; for WSTD0-8 h, Mean (SD): primary efficacy endpoint; for Headache due to RSE, subjects / Nausea due to RSE, subjects / Pyrexia, AE considered related to RSE, subjects: study drug treatment period
Method: This study evaluated the antipyretic efficacy, onset of effect and tolerability of a single dose of FDC IBU/APAP 250 mg/500 mg compared with placebo and each monocomponent at the same dose.
This was a single-center, randomized, double-blind, placebo-controlled, full-factorial study in healthy males aged 18-55 years in whom pyrexia was induced by intravenous administration of a reference standard endotoxin (RSE). After RSE administration and attainment of an oral temperature ≥100.5° F. (38.1° C.), subjects were randomized 3:3:3:1 to receive a single oral dose of FDC IBU/APAP 250 mg/500 mg, APAP 500 mg, IBU 250 mg, or placebo in double-blind fashion. Oral temperature was subsequently measured every 10 minutes for the first 2 hours and then every 30 minutes until 8 hours post dose. Time-weighted sum of temperature differences from baseline to 8 hours (WSTD0-8) after study medication administration was the primary efficacy endpoint. Secondary endpoints included WSTD scores from 0-2, 0-4, 0-6, and 6-8 hours; time to return to “normal” temperature; time to rescue medication use; global drug evaluation. Safety was monitored and assessed via adverse events (AEs).
This was a single-center, randomized, double-blind, placebo-controlled, full-factorial single-dose study in subjects in whom pyrexia was induced by intravenous (IV) administration of a reference standard endotoxin (RSE). In this standardized model, fever was induced by endotoxin (gram-negative bacterial lipopolysaccharide) derived from Escherichia coli O113, which was developed as a national biological reference standard in 1976 by the National Institute of Allergy and Infectious Diseases and the US Food and Drug Administration. The RSE used in this study was supplied by List Biological Laboratories, Inc. (Campbell, CA, USA).
Subject eligibility was determined at a screening visit within 28 days prior to study drug treatment; eligible subjects were assigned sequential subject numbers by the investigator. Subjects were healthy males aged 18-55 years, inclusive, with a normal, stable body temperature at screening and day 0, body mass index of 17.5-37.0 kg/m^2, and total body weight ≥50 kg at screening, demonstrably adequate veins for IV catheter insertion, and who were willing and able to comply with all study procedures. […] Female subjects were not enrolled due to potential teratogenicity concerns associated with the use of the RSE.
Subjects entered the study center on day 0 to confirm eligibility, i.e., afebrile state, defined as a mean oral temperature 97.4° F. to 98.8° F. not varying by more than 0.4° F. on 3 repeated measures over 30 minutes and still meeting inclusion/exclusion criteria. Subjects who remained eligible for the study remained in-house until after completion of all study procedures.
Subjects received prophylactic ondansetron, 8 mg intravenously, approximately 30 minutes prior to administration of the RSE to reduce the likelihood of nausea and vomiting. Prior to RSE administration, changes to prior treatments were recorded; blood pressure and HR were measured; and a 12-lead ECG was obtained. Oral temperatures were recorded, with “normal” for each subject being the temperature recorded immediately prior to RSE administration.
Subject eligibility Subject assessments included physical examination, vital sign measurement, ECG evaluation, and laboratory studies (hematology, serum chemistry, urinalysis). The baseline oral temperature was defined as the temperature reading obtained immediately prior to administration of study medication, after the subject had reached an RSE-induced oral temperature ≥100.5° F. (38.1° C.) that was required for randomization. After randomization and study medication administration, oral temperature was measured using a standardized electronic digital thermometer every 10 minutes for the first 2 hours, and then every 30 minutes until 8 hours post dose. Subjects were assessed for emergence of AEs at each temperature evaluation time point. […]

[1] = first minus second treatment, IBU 250 mg

Structure (SMILES) | WSTD0-2 h, Treatment difference vs. Placebo [1] | WSTD0-4 h, Treatment difference vs. Placebo [1] | WSTD0-6 h, Treatment difference vs. Placebo [1] | WSTD0-8 h, Treatment difference vs. Placebo [1] | WSTD6-8 h, Treatment difference vs. Placebo [1] | WSTD50-110 min, LSM | WSTD50-110 min, Mean | WSTD80-110 min, LSM | WSTD80-110 min, Mean | WSTD50-110 min, Treatment difference vs. Placebo (post hoc, IBU 250 mg) | WSTD80-110 min, Treatment difference vs. Placebo (post hoc, IBU 250 mg) | Period post dose in which subjects' temperatures were significantly reduced relative to placebo (IBU 250 mg) [min] | WSTD0-2 h, Mean (SD) | WSTD0-4 h, Mean (SD) | WSTD0-6 h, Mean (SD) | WSTD6-8 h, Mean (SD) | WSTD0-8 h, Mean (SD) | Headache due to RSE, subjects (IBU 250 mg) [%] | Nausea due to RSE, subjects (IBU 250 mg) [%] | Pyrexia, AE considered related to RSE, subjects (IBU 250 mg) [%] | other results
CC(C)Cc1ccc(C(C)C(=O)O)cc1 (stereo not shown) [IBU, 2-(4-isobutylphenyl) propionic acid] | 0.51 | 1.26 | 1.83 | 2.23 | 0.51 | 0.103 | −0.02 | 0.190 | 0.13 | 0.374 | 0.251 | 100 to 180 | −0.19 (1.86) | 2.61 (3.34) | 6.65 (4.79) | 5.49 (2.26) | 11.09 (6.35) | 14.9 | 12.6 | 41.4 | Subjects who took rescue medication (8-hour treatment period, IBU 250 mg): 1 subject; Global Evaluation of study medication as a fever reducer, in words (ANCOVA analysis, 6-point scale, P<0.05): rated their treatment significantly higher than those in the placebo group; WSTD0-2 h, Treatment difference vs. APAP 500 mg [1]: −0.09; WSTD0-4 h, Treatment difference vs. APAP 500 mg [1]: −0.16; WSTD0-6 h, Treatment difference vs. APAP 500 mg [1]: −0.09; WSTD0-8 h, Treatment difference vs. APAP 500 mg [1]: −0.12; WSTD6-8 h, Treatment difference vs. APAP 500 mg [1]: −0.01; WSTD50-110 min, Treatment difference vs. APAP 500 mg (post hoc, IBU 250 mg): −0.032; WSTD80-110 min, Treatment difference vs. APAP 500 mg (post hoc, IBU 250 mg): −0.002
CC(=O)Nc1ccc(O)cc1 [APAP, N-(4-hydroxyphenyl)acetamide] | 0.60 | 1.42 | 1.92 | 2.35 | 0.53 | 0.135 | 0.19 | 0.192 | 0.23 | 0.406 | 0.253 | 100 to 270 | 0.21 (1.73) | 3.41 (3.17) | 7.65 (4.60) | 5.84 (2.33) | 12.39 (6.28) | 5.7 | 9.2 | 29.9 | 
